Assay [1] can be described thus: Inhibition of Mycobacterium tuberculosis 2-hydroxy-3-oxoadipate synthase-catalyzed reduction of ferricyanide.
A short description of assay [2]: Competitive inhibition of Mycobacterium tuberculosis 2-hydroxy-3-oxoadipate synthase-catalyzed reduction of ferricyanide.

As for `Cc1ncc(Cc2csc(CCOP(=O)(O)OP(=O)(O)O)c2C)c(N)n1`, the IC50 – broadly, the point on the concentration scale where inhibition reaches its midpoint – in assay [1] worked out at 6.7 µM. For the same compound, the Ki (commonly the equilibrium dissociation constant of an inhibitor or competing ligand from its target) in assay [2] amounted to 3.5 µM.

As for `Cc1ncc(Cc2csc(CCO)c2C)c(N)n1` [3-DEAZATHIAMINE], the midpoint of inhibition in assay [1], the IC50, lay at 144 µM. The same compound displayed an inhibition constant (Ki) in assay [2] of 76 µM.

(Values after ChEMBL document CHEMBL1269002, “A protecting group-free synthesis of deazathiamine: a step toward inhibitor design” (Bioorg Med Chem Lett, 2010).)
